The target of this assay is NLRP3 inflammasome (Mus musculus, UniProt Q8R4B8). The assay is described as follows: Inhibition of IL-1β production in mouse BMDMs stimulated by LPS + nigericin. The conditions noted are these: Mouse BMDM, read-out: Geo Av IC50, IL-1β. The format is cell-based. The arrangement: host or cells: mouse PBMCs; mouse bone-marrow derived macrophages; mouse whole blood (C57BL/6 in the ex vivo study). On the procedure: Inflammasome activation and whole blood assays were essentially carried out as described earlier. Details can be found in the supplementary information section accompanying this publication. A protocol for blood draws from healthy volunteers and use of the blood in preclinical assays was approved by Western Institutional Review Board, Inc (Puyallup, WA, USA). Informed consent was obtained from each donor prior to the first blood draw.
NLRP3 inflammasome, sequence (Q8R4B8 whole entry): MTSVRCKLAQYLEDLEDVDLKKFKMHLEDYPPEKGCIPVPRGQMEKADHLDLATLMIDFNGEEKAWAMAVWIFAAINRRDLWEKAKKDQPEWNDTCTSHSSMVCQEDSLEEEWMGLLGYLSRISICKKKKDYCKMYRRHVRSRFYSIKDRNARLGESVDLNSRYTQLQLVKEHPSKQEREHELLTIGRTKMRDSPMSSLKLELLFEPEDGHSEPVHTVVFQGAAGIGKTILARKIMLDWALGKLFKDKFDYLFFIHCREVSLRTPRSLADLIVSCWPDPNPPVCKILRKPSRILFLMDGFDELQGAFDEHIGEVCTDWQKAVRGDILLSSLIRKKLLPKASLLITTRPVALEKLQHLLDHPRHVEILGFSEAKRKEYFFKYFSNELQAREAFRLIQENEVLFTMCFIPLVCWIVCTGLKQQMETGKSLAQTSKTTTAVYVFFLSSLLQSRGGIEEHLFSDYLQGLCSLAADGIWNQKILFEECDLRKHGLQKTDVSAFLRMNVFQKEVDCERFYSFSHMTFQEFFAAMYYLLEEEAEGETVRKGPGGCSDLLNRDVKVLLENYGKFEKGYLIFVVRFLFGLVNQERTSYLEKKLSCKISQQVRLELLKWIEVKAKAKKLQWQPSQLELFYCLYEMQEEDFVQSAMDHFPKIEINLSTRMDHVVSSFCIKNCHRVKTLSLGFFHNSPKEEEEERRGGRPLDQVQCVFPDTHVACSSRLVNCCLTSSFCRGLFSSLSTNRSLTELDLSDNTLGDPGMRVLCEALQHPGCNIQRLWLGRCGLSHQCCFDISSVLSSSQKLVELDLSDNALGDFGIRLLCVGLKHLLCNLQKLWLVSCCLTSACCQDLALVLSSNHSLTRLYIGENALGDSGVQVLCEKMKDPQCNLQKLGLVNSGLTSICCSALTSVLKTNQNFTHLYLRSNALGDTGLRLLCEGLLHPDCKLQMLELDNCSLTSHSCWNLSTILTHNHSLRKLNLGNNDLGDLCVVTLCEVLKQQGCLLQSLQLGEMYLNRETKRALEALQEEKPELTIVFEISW
Cell viability was determined by addition of an equal volume of CellTiter-Glo® 2.0 reagent (Promega) to the remaining cells/supernatant in each well. Intracellular Caspase-1 activity was measured using the Caspase-Glo® assay (Promega) according to the manufacturer’s instructions. The biochemical capsase-1 assay was conducted at Reaction Biology Corporation (Malvern, USA). Human IL-1β, IL-1α, and TNFα and mouse IL-1β were measured in cell culture supernatants using homogeneous time resolved fluorescence assay kits (HTRF, Cisbio, Codolet, France). Human IL-18 was measured in cell culture supernatants using an ELISA kit (R&D Systems, Minneapolis, MN, USA). Plasma IL-1β concentrations were determined by Quantikine® ELISA (R&D Systems, Minneapolis, MN).
4H). MS: m/z 433.1 (M+H+). […]

Each structure is given as a SMILES string.

In general, IC50 refers to the concentration at which inhibition is half-maximal. Turning to `CO[C@@H]1COc2c(S(=O)(=O)NC(=O)Nc3c4c(cc5c3CCC5)CCC4)cnn2C1` [JT002], the IC50 worked out at 23 nM.

For the origin of these results see article PMC10439952, “JT002, a small molecule inhibitor of the NLRP3 inflammasome for the treatment of autoinflammatory disorders” (Scientific Reports, 2023).
